The source of these data is patent publication US6677336B2, “Substituted piperazine compounds” (CV Therapeutics, Inc., priority 2000, dated 2004).

Data set [1] concerns mitochondrial fatty acid oxidation (rat heart mitochondria). Nature of the data set: Palmitoyl carnitine oxidation in isolated rat heart mitochondria. Conditions: 15 min at 30° C, DMSO control. The class given is biochemical. As for the experimental part:
(§1) Rat heart mitochondria were isolated by the method of Nedergard and Cannon (methods in Enzymol. 55, 3, 1979).
The Palmitoyl carnitine oxidation was carried out in a total volume of 100 microliters containing the following agents: 110 mM KCl, 33 mM Tris buffer at pH 8, 2 mM KPi, 2 mM MgCl2, 0.1 mM EDTA, 0.1 mg/ml of defatted BSA, 0.5 mM malic acid, 3 mM ADP, 52 micrograms of mitochondrial protein, and 43 microM 1-C14 palmitoyl carnitine (Sp. Activity 60 mCi/mmole; 20 microCi/ml, using 5 microliters per assay). The compounds of this invention were added in a DMSO solution at the following concentrations: 100 microM, 30 microM, and 3 microM. In each assay, a DMSO control was used. After 15 min at 30° C., the enzymatic reaction was centrifuged (20,000 g for 1 min), and 70 microliters of the supernatant was added to an activated reverse phase silicic acid column (approximately 0.5 ml of silicic acid). The column was eluted with 2 ml of water, and 0.5 ml of the eluent was used for scintillation counting to determine the amount of C^14 trapped as C^14 bicarbonate ion. The data are presented as % activity of control in Table 3, below.

Data set [2] has the same test system. Nature of the data set: Palmitoyl CoA oxidation in isolated rat heart mitochondria. Conditions: 15 min at 30° C, DMSO control. Type of data set: biochemical. As for the experimental part: Compounds of this invention were evaluated in a rat heart mitochondiral assay as set forth below.
as §1
Palmitoyl CoA oxidation—The Palmityl CoA oxidation was carried out in a total volume of 100 micro liters containing the following agents: 110 mM KCl, 33 mM Tris buffer at pH 8, 2 mM KPi, 2 mM MgCl2, 0.1 mM EDTA, 14.7 microM defatted BSA, 0.5 mM malic acid, 13 mM carnitine, 1 mM ADP, 52 micrograms of mitochondrial protein, and 16 microM 1-C14 palmitoyl CoA (Sp. Activity 60 mCi/mmole; 20 microCi/ml, using 5 microliters per assay). The compounds of this invention were added in a DMSO solution at the following concentrations: 100 microM, 30 microM, and 3 microM. In each assay, a DMSO control was used. After 15 min at 30° C., the enzymatic reaction was centrifuged (20,000 g for 1 min), and 70 microliters of the supernatant was added to an activated reverse phase silicic acid column (approximately 0.5 ml of silicic acid). The column was eluted with 2 ml of water, and 0.5 ml of the eluent was used for scintillation counting to determine the amount of C^14 trapped as C^14 bicarbonate ion.

A short description of data set [3]: Metabolic stability in human liver S-9 fractions. Conditions: human liver S9, 30 min at 37 C.
Method: After, 30 minutes at 37 C, the amount of parent drug remaining was determined using LC-mass spec. The response factors for each compound was determined by establishing a standard curve and using an internal standard during the analysis of the samples. […] The compounds of this invention were assayed as described in the protocol below and the percentage of parent remaining was divided by the average % of ranolazine remaining (57%) affording a metabolic stability factor.
The purpose of this experiment is to compare the percentages remaining for compounds of this invention with the percentage remaining for ranolazine after 30 minutes of incubation with human liver S9 fractions.
The following reagents were used; Potassium phosphate, 0.5M pH 7.4 (incubation buffer), kept at room temperature; 0.05M MgCl2 kept at 4° C.; P-Nicotinamide adenine dinucleotide phosphate, tetrasodium salt, reduced form (NADPH), 0.02M solution in water (˜16.6mg/mL) from Sigma Lot #79H7044 prepared on day of use. 1 mM of ranolazine or Compounds 43, 45, 47, 52, 70, 74, 76, 78, and 80 in ACN further diluted to obtain 100 μM in 10% ACN; Human S9 stock: 20 mg/mL from Gentest.
Incubation mixtures were prepared as follows:
Combine all components with incubation buffer and re-pipette 200 μL/tube+25 μL of the compound being tested along with 25 μL of S-9.
After 5 min of pre-incubation at 37° C., at 0 and 30 min after starting the reaction, a 50 μl aliquot of the incubation mixture was removed and added to 100 μL of 9:1 acetonitrile: methanol containing the internal standard.
The mixture was centrifuged and a 100 μL aliquot of the supernatant was diluted in 1 mL of solvent C (0.1% Formic Acid in water). Then samples were analyzed for change between the ratio of compound to internal standard at time zero and 30 minutes by LC/MS (injected 10 EL).
Samples were analyzed for the starting compounds and potential metabolite/s by LC/MS using an internal standard and an ODS-C18 column with a flow rate of 0.25 ml/min.

As to `COc1ccccc1OCC(O)CN1CCN(CC(=O)Nc2c(C)cccc2C)CC1` (racemic) [Ranolazine, (±)-N-(2,6-dimethylphenyl)-4-[2-hydroxy-3-(2-methoxyphenoxy)-propyl]-1-piperazineacetamide, reference compound], the “Inhibition of mitochondrial fatty acid oxidation using palmitoyl carnitine as substrate - % of Control” value was 98% in data set [1] (30 μM compound) and 63% in data set [1] (100 μM compound). The “Inhibition of mitochondrial fatty acid oxidation using palmitoyl CoA as substrate - % of Control” value in data set [2] (30 μM compound) was found to be 90%; in data set [2] (100 μM compound), 75%. The “Liver S9 Parent Present relative to Ranolazine” value in data set [3] (10 μM, % parent remaining divided by average % ranolazine remaining (57%)) is on record as 1.0. Moreover, the “percentage of parent drug remaining at the 30 minute time point” value in data set [3] (average of five experiments) stood at 57%.
As to `Cc1cccc(C)c1NC(=O)CN1CCN(CC(O)CCOc2ccc(C(C)(C)C)cc2)CC1` (centres unmarked) [Compound 22], in data set [1] (100 μM compound), the “Inhibition of mitochondrial fatty acid oxidation using palmitoyl carnitine as substrate - % of Control” value came to 25%. The “Inhibition of mitochondrial fatty acid oxidation using palmitoyl CoA as substrate - % of Control” value in data set [2] (100 μM compound) worked out at 16%.
As to `COc1ccccc1OCC(O)CN1CCN(CC(=O)Nc2c(C)cccc2C)CC1(C)C` (centres unmarked) [Compound 18, N-(2,6-dimethylphenyl)-2-{4-[2-hydroxy-3-(2-methoxyphenoxy)propyl]-3,3-dimethylpiperazinyl}acetamide], in data set [1] (100 μM compound), the “Inhibition of mitochondrial fatty acid oxidation using palmitoyl carnitine as substrate - % of Control” value was determined as 17%. Moreover, the “Inhibition of mitochondrial fatty acid oxidation using palmitoyl CoA as substrate - % of Control” value in data set [2] (100 μM compound) is given as 80%.
Turning to `Cc1cccc(C(C)C)c1NC(=O)CN1CCN(C[C@H](O)COc2ccccc2F)[C@@H](C)C1` [Compound 38, 2-{(3S)-4-[(2S)-3-(2-fluorophenoxy)-2-hydroxypropyl]-3-methylpiperazinyl}-N-[6-methyl-2-(methylethyl)phenyl]acetamide], the “Inhibition of mitochondrial fatty acid oxidation using palmitoyl CoA as substrate - % of Control” value in data set [2] (100 μM compound) is 78%.
For `C[C@H]1CN(CC(=O)Nc2ccc(Cl)c3ccccc23)CCN1C[C@H](O)COc1ccccc1F` [Compound 31, 2-{(3S)-4-[(2S)-3-(2-fluorophenoxy)-2-hydroxypropyl]-3-methylpiperazinyl}-N-(4-chloronaphthyl)acetamide], the “Inhibition of mitochondrial fatty acid oxidation using palmitoyl CoA as substrate - % of Control” value in data set [2] (100 μM compound) was determined as 87%.
Turning to `Cc1cccc(CO)c1NC(=O)CN1CCN(C[C@H](O)COc2ccccc2F)[C@@H](C)C1` [Compound 62], the “Inhibition of mitochondrial fatty acid oxidation using palmitoyl CoA as substrate - % of Control” value in data set [2] (100 μM compound) is 66%.
Same read-out and setting: under `C[C@H]1CN(CC(=O)Nc2ccc(C(F)(F)F)cc2)CCN1C[C@H](O)COc1ccccc1F` [Compound 54, 2-{(3S)-4-[(2S)-3-(2-fluorophenoxy)-2-hydroxypropyl]-3-methylpiperazinyl}-N-[4-(trifluoromethyl)phenyl]acetamide] stands 75%; under `Cc1cccc(C)c1NC(=O)CN1CCN(C[C@H](O)COc2ccccc2F)[C@@H](C)C1` [Compound 25, 2-{(3S)-4-[(2S)-3-(2-fluorophenoxy)-2-hydroxypropyl]-3-methylpiperazinyl}-N-(2,6-dimethylphenyl)acetamide], 77%; under `Cc1cccc(C)c1NC(=O)CN1CCN(CC(O)CCOc2ccc(F)cc2)CC1` (centres unmarked) [Compound 21, N-(2,6-dimethylphenyl)-2-{4-[4-(4-fluorophenoxy)-2-hydroxybutyl]-piperazinyl}acetamide], 87%.
Same read-out and setting: with `COc1cc(NC(=O)CN2CCN(C[C@H](O)COc3ccccc3F)[C@@H](C)C2)cc(OC)c1OC` [Compound 59, 2-{(3S)-4-[(2S)-3-(2-fluorophenoxy)-2-hydroxypropyl]-3-methylpiperazinyl}-N-(3,4,5-trimethoxyphenyl)acetamide] the figure was 76%.
On the same count and under the same terms, under `COc1ccccc1NC(=O)CN1CCN(C[C@H](O)COc2ccccc2F)[C@@H](C)C1` [Compound 53, 2-{(3S)-4-[(2S)-3-(2-fluorophenoxy)-2-hydroxypropyl]-3-methylpiperazinyl}-N-(2-methoxyphenyl)acetamide] stands 81%; under `CSc1cccc(NC(=O)CN2CCN(C[C@H](O)COc3ccccc3F)[C@@H](C)C2)c1` [Compound 39, 2-{(3S)-4-[(2S)-3-(2-fluorophenoxy)-2-hydroxypropyl]-3-methylpiperazinyl}-N-(3-methylthiophenyl)acetamide], 60%; under `C[C@H]1CN(CC(=O)Nc2c(Cl)cccc2Cl)CCN1C[C@H](O)COc1ccccc1F` [Compound 26, 2-{(3S)-4-[(2S)-3-(2-fluorophenoxy)-2-hydroxypropyl]-3-methylpiperazinyl}-N-(2,6-dichlorophenyl)acetamide], 0%.
For the compound `C=C(C)c1ccccc1NC(=O)CN1CCN(C[C@H](O)COc2ccccc2F)[C@@H](C)C1` [Compound 36, 2-{(3S)-4-[(2S)-3-(2-fluorophenoxy)-2-hydroxypropyl]-3-methylpiperazinyl}-N-[2-(1-methylvinyl)phenyl]acetamide], the “Inhibition of mitochondrial fatty acid oxidation using palmitoyl CoA as substrate - % of Control” value in data set [2] (100 μM compound) came out at 61%.
Still for that read-out and setting: with `C[C@H]1CN(CC(=O)Nc2ccc(F)cc2)CCN1C[C@H](O)COc1ccccc1F` [Compound 50, 2-{(3S)-4-[(2S)-3-(2-fluorophenoxy)-2-hydroxypropyl]-3-methylpiperazinyl}-N-(4-fluorophenyl)acetamide] the figure was 80%; with `C[C@H]1CN(CC(=O)Nc2ccc(Cl)c(C(F)(F)F)c2)CCN1C[C@H](O)COc1ccccc1F` [Compound 55, 2-{(3S)-4-[(2S)-3-(2-fluorophenoxy)-2-hydroxypropyl]-3-methylpiperazinyl}-N-[4-chloro-3-(trifluoromethyl)phenyl]acetamide], 11%; with `COc1ccc(NC(=O)CN2CCN(C[C@H](O)COc3ccccc3F)[C@@H](C)C2)cc1F` [Compound 58, 2-{(3S)-4-[(2S)-3-(2-fluorophenoxy)-2-hydroxypropyl]-3-methylpiperazinyl}-N-(3-fluoro-4-methoxyphenyl)acetamide], 81%.
Take `COc1ccccc1OCC(O)CN1C(C)CN(CC(=O)Nc2c(C)cccc2C)CC1C` (centres unmarked) [Compound 7, N-(2,6-dimethylphenyl)-2-{4-[2-hydroxy-3-(2-methoxy)propyl]-3,5-dimethylpiperazinyl}acetamide]: the entries for the “Inhibition of mitochondrial fatty acid oxidation using palmitoyl carnitine as substrate - % of Control” value in data set [1] (3 μM compound), in data set [1] (30 μM compound) and in data set [1] (100 μM compound) were 109%, 102% and 95%, respectively. For the same compound, the “Inhibition of mitochondrial fatty acid oxidation using palmitoyl CoA as substrate - % of Control” value amounted to 107% in data set [2] (3 μM compound), 98% in data set [2] (30 μM compound) and 85% in data set [2] (100 μM compound).
Regarding `C[C@H]1CN(CC(=O)Nc2ccc(N3CCOCC3)cc2)CCN1C[C@H](O)COc1ccccc1F` [Compound 57, 2-{(3S)-4-[(2S)-3-(2-fluorophenoxy)-2-hydroxypropyl]-3-methylpiperazinyl}-N-(4-morpholin-4-ylphenyl)acetamide], the “Inhibition of mitochondrial fatty acid oxidation using palmitoyl CoA as substrate - % of Control” value in data set [2] (100 μM compound) came to 73%.
With `C[C@H]1CN(CC(=O)Nc2ccccc2-n2cccc2)CCN1C[C@H](O)COc1ccccc1F` [Compound 32, 2-{(3S)-4-[(2S)-3-(2-fluorophenoxy)-2-hydroxypropyl]-3-methylpiperazinyl}-N-(2-pyrrolylphenyl)acetamide], the “Inhibition of mitochondrial fatty acid oxidation using palmitoyl CoA as substrate - % of Control” value in data set [2] (100 μM compound) came out at 74%.
